These are literature values, as cited in patent US6689595B1, “Crystallization and structure determination of Staphylococcus aureus thymidylate kinase” (Pharmacia & Upjohn Company, priority 1999, dated 2004).

In this data set the target is E. coli TMK (Escherichia coli, UniProt P0A720). The note with it: from A. Lavie et al. 1998.
E. coli TMK, sequence (P0A720 whole entry): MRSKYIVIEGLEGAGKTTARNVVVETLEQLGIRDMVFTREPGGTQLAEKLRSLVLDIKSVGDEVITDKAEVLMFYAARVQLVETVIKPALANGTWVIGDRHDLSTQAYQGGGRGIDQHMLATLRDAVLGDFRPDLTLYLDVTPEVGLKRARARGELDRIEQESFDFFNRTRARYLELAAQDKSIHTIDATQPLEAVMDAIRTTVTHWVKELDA

As to `Cc1cn([C@H]2C[C@H](O)[C@@H](COP(=O)(O)OP(=O)(O)OP(=O)(O)OP(=O)(O)OP(=O)(O)OC[C@H]3O[C@@H](n4cnc5c(N)ncnc54)[C@H](O)[C@@H]3O)O2)c(=O)[nH]c1=O` [AP5T], the Kd is 0.02 µM.
